Results from paper PMC8889550 (JACS Au, 2022).

Target: T1, horseradish peroxidase (HRP) (Armoracia rusticana, UniProt P00433)
T1 sequence (P00433 31-338): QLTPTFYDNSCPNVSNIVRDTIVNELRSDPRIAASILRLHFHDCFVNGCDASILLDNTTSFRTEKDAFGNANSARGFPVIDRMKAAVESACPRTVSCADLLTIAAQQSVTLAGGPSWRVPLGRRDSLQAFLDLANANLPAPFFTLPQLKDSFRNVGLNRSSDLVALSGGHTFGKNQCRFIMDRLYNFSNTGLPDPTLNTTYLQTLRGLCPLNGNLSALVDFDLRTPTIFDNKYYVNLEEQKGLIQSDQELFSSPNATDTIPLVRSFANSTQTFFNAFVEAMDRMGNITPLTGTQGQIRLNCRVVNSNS
Assay: coupled GOx/HRP cascade, Resorufin formation in plate reader
Type: biochemical
Conditions: 200 μM Amplex Red; H2O2 generated by GOx from glucose; DNA-functionalized enzyme

In the case of `CC(=O)N1c2ccc(O)cc2Oc2cc(O)ccc21` [Amplex Red], the “coupled GOx/HRP cascade, Resorufin formation in plate reader” value is reported as “Amplex Red → Resorufin catalyzed by HRP”.
